# Laboratory results as given in US10844002B2, “Lipids and lipid compositions for the delivery of active agents” (priority 2014, dated 2020).
# Several values for one entry are separate records, joined by “and”; a condition that tells them apart may be missing. Identical values can stand only once.
# Legend:
# [1] = Encapsulation efficiency of RNA replicons (Quant-iT RiboGreen); assay type: physicochemical; settings: LNP 40% cationic lipid, 10% DSPC, 48% cholesterol, 2% PEG-DMG; RNA replicon
# Experimental: Briefly, lipids were dissolved in ethanol (2m1), a RNA replicon was dissolved in buffer (2 ml, 100 mM sodium citrate, pH 6) and these were mixed with 2 ml of buffer followed by 1 hour of equilibration. The mixture was then dialized overnight against 1×PBS. The resulting product contained liposomes, with ˜70-95% encapsulation efficiency.
# The percentage of encapsulated RNA and RNA concentration were determined by Quant-iT RiboGreen RNA reagent kit (Invitrogen), following manufacturer's instructions. The ribosomal RNA standard provided in the kit was used to generate a standard curve. LNPs were diluted 10× or 100× in 1× TE buffer (from kit) before addition of the dye. Separately, LNPs were diluted 10× or 100× in 1× TE buffer containing 0.5% Triton X before addition of the dye (to disrupt the LNPs and thus to assay total RNA). Thereafter an equal amount of dye was added to each solution and then ˜180 μL of each solution after dye addition was loaded in duplicate into a 96 well tissue culture plate. The fluorescence (Ex 485 nm, Em 528 nm) was read on a microplate reader. All LNP formulations were dosed in vivo based on the encapsulated amount of RNA.
# [2] = system: H1N1 influenza A strain, Ca107; test: Immunogenicity in ferret models (Influenza): haemagultanin inhibition (HAI) titers; assay type: in vivo, ferrets; settings: IM
# Experimental: (§1) For immunization in ferrets, a lipid working solution was freshly prepared by dissolving 22.5 mg of Example 1, 5.9 mg of DSPC, 13.9 mg of Cholesterol and 4.0 mg of PEG2000-conjugated DMPE (cat #880150P, Avanti Polar Lipids, Inc.) in 10 ml ethanol. A 10 mL working solution of RNA was also prepared at a concentration of 0.125 mg/ml in 100 mM citrate buffer (pH 6). The working lipid and RNA solutions were heated at 37° C. for 5 min before being loaded into two 10 cc luer-lok syringes. […] The outlet from the T mixer was also FEP tubing separately, 10 mL of citrate buffer (pH 6) was loaded in a third 10 cc syringe which was connected to a separate piece of tubing. All three syringes were loaded on a syringe pump and driven at 1.0 ml/min. The tubing outlets were positioned to collect the mixtures in a 20 mL glass vial which was gently stirred using a stirring bar. All glass vials were baked at 250° C. for 12 hours prior to experiment to completely inactivate any RNase contaminant. At the end of mixing, the stir bar was taken out and the ethanol/aqueous solution was allowed to equilibrate to room temperature for 1 hour. After incubation, the ethanol/aqueous solution was loaded into a syringe, and mixed with equal volume of 100 mM citrate buffer (pH 6) using the aforementioned Tee-junction process. Next, LNPs were concentrated to 20 mL and dialyzed against 10-15 volumes of 1× PBS using by tangential flow filtration before recovering the final product. The TFF system and hollow fiber filtration membranes were purchased from Spectrum Labs (Rancho Dominguez) and were used according to the manufacturer's guidelines. Polysulfone hollow fiber filtration membranes with a 100 kD pore size cutoff and 8 cm^2 surface area were used. For in vitro and in vivo experiments formulations were diluted to the required RNA concentration with 1×. PBS.
# (§2) A total of seven experimental groups with six animals per group (42 animals) were used in this study; two vaccine doses of each RNA formulation (Groups 2-5), two groups vaccinated with a non-adjuvated (H1N1 subunit) or an adjuvated (MF59/H1N1 subunit) commercially available H1N1 influenza subunit vaccine (Groups 6 and 7) and a mock vaccinated group (Group 1). The RNA test vaccines were derived from a recombinant DNA plasmid (pDNA) carrying an alphavirus genome in which the structural genes were replaced with the HA gene from the H1N1 influenza A strain, Ca107. The RNA was then formulated in either cationic oil-in-water emulsion (CNE) or LNP for delivery to host cells via intramuscular (IM) injection. RNA concentrations for each formulation study group were 15 and 45 mcg for CNE and 5 and 15 mcg for LNP. The H1N1 subunit vaccines were used at a HA subunit protein concentration of 15 mcg. Non-vaccinated animals were mock vaccinated with a vehicle control for the RNA test vaccines. All test vaccines were administered by IM injection on Study Days (SD) 0 followed with a booster vaccination on Study Day 56 (8 weeks post 1st immunization).
# (§3) Table 5 summarizes Influenza microneutralization data and table 6 the haemagultanin inhibition (HAI) titers. The LNP formulation tested generated immune responses with as little as 5 μg of self-amplifying RNA, as determined by increased HA-specific neutralization and HAI titers.
# RSV F protein = assay type: in vivo; settings: Table 4; BALB/c mice, intramuscular, 1 ng vA375 replicon in LNP, days 0 and 21
# [3] = system: H1N1 influenza A strain, Ca107; test: Immunogenicity in ferret models (Influenza): microneutralization; assay type: in vivo, ferrets; settings: IM
# Experimental: as §1, §2, §3
# [4] = Characterization of LNP formulations: Z average particle diameter and polydispersity index; assay type: physicochemical; settings: LNP formulation
# Source text: The lipid nanoparticles have a size of about 1 to about 2,500 nm, about 1 to about 1,500 nm, about 1 to about 1,000 nm, in a sub-embodiment about 50 to about 600 nm, in a sub-embodiment about 50 to about 400 nm, in a sub-embodiment about 50 to about 250 nm, and in a sub-embodiment about 50 to about 150 nm. Unless indicated otherwise, all sizes referred to herein are the average sizes (diameters) of the fully formed nanoparticle, as measured by dynamic light scattering on a Malvern Zetasizer. The nanoparticle sample is diluted in phosphate buffered saline (PBS) so that the count rate is approximately 200-400 kcts. The data is presented as a weighted average of the intensity measure.
# [5] = 5 mcg RNA, Pre-bleed, per animal
# [6] = 15 mcg RNA, Pre-bleed, per animal
structure (smiles),measurement,setting,value
"CCCCC/C=C\C/C=C\CCCCCCCCOc1ccc(OCCCCCCCC/C=C\C/C=C\CCCCC)c(COC(=O)CCCN(C)C)c1 [Example 1, 2,5-bis((9Z,12Z)-octadeca-9,12-dien-1-yloxy)benzyl 4-(dimethylamino)butanoate]",Encapsulation efficiency (RNA %),[1],96.6%
same,Influenza HAI titer,"[2]; 5 mcg RNA, 4wp1, per animal",20 (2×) and 80 and 40 (2×) and 10
same,Influenza HAI titer,"[2]; 5 mcg RNA, 4wp2, per animal",640 (2×) and >20480 (3×) and 320
same,Influenza HAI titer,"[2]; 5 mcg RNA, 8wp1, per animal",20 (2×) and 40 (2×) and 10 and <10
same,Influenza HAI titer,[2]; [5],<10
same,Influenza HAI titer,"[2]; 15 mcg RNA, 4wp1, per animal",160 (2×) and 320 and 80 (2×) and 40
same,Influenza HAI titer,"[2]; 15 mcg RNA, 4wp2, per animal",640 (4×) and >20480 (2×)
same,Influenza HAI titer,"[2]; 15 mcg RNA, 8wp1, per animal",40 (3×) and 80 (2×) and 20
same,Influenza HAI titer,[2]; [6],<10
same,"Log10(IgG titer), 1 ng RNA (RSV-F), 2 weeks post 2nd immunization",RSV F protein,4.43
same,Influenza microneutralization titer,"[3]; 5 mcg RNA, 4wp1, per animal",20 (2×) and 80 and 40 (2×) and 10
same,Influenza microneutralization titer,"[3]; 5 mcg RNA, 4wp2, per animal",640 (2×) and >20480 (3×) and 320
same,Influenza microneutralization titer,"[3]; 5 mcg RNA, 8wp1, per animal",20 (2×) and 40 (2×) and 10 and <10
same,Influenza microneutralization titer,[3]; [5],<10
same,Influenza microneutralization titer,"[3]; 15 mcg RNA, 4wp1, per animal",160 (2×) and 320 and 80 (2×) and 40
same,Influenza microneutralization titer,"[3]; 15 mcg RNA, 4wp2, per animal",640 (4×) and >20480 (2×)
same,Influenza microneutralization titer,"[3]; 15 mcg RNA, 8wp1, per animal",40 (3×) and 80 (2×) and 20
same,Influenza microneutralization titer,[3]; [6],<10
same,Zav (nm),[4]; Z average particle diameter,135.3 nm
same,polydispersity,[4]; polydispersity index,0.11
